Test [1] concerns the target T1, M.tb CdnP (Mycobacterium tuberculosis, UniProt P71615). The test is described as follows: biochemical.
Another test has as its target T2, human ENPP1 (Homo sapiens, UniProt P22413).
T2 construct: purchased Origene
T2 sequence (P22413 1-925): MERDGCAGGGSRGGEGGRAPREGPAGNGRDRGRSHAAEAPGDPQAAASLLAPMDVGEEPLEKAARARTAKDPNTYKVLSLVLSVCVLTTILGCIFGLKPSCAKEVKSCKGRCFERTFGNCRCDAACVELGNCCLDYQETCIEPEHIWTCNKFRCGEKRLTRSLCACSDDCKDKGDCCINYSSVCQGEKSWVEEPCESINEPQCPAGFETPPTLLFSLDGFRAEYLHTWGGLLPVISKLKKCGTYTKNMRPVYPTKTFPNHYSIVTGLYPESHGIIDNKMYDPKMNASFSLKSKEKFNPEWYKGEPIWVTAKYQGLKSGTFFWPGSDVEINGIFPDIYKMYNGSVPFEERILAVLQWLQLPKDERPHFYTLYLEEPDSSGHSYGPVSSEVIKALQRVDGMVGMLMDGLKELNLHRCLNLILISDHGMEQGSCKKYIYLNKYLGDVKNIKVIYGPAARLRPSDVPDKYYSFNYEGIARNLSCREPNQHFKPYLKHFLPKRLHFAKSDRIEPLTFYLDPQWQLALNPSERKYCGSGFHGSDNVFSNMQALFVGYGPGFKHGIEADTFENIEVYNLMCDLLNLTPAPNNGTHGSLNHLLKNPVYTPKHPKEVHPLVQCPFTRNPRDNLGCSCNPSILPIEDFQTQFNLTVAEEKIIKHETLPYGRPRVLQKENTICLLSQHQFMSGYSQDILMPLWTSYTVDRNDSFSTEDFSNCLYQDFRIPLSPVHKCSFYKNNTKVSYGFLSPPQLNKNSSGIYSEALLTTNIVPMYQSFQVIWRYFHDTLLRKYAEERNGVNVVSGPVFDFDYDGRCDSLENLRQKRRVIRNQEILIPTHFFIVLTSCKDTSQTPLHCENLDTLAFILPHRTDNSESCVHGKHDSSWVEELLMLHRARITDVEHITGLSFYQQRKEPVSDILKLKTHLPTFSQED
Put plainly: Luminescence-based AMP-Glo ENPP1 enzyme inhibition assay with 2′,3′-cGAMP substrate. It counts as biochemical. The conditions noted are these: 2′,3′-cGAMP 300 µM, ENPP1 5 µM.

Another test relates to Vero cells. Put plainly: Vero cell cytotoxicity, resazurin dye reduction assay. It counts as cell-based, African green monkey. For orientation: Resazurin is reduced to fluorescent resorufin, in cell work by metabolically active cells.
Test [2] relates to RAW-Blue IRF3 ISG reporter macrophages. Put plainly: IRF3 induction in RAW-Blue IRF3-SEAP reporter macrophages after 2′,3′-cGAMP transfection (QUANTI-Blue). It counts as cell-based, mouse. The conditions noted are these: 165 µM E-3 plus 1 nM 2′,3′-cGAMP, 24 h.
Test [3] deals with primary human monocyte-derived macrophages (hMDMs). The test is described as follows: IFN-β release by human monocyte-derived macrophages after 2′,3′-cGAMP transfection (ELISA). Type of test: cell-based.
The target of test [4] is T1, M.tb CdnP. Type of test: biochemical.
[5] abbreviates: Vero cell growth inhibition, 48 h then resazurin overnight.
Where [6] appears, read: Vero cell growth inhibition, 48 h then resazurin overnight, read-out: IC50 Vero cells.
Setting [7] is: Chlorocebus sabaeus, Vero, 48 h, Vero cell growth inhibition, 48 h then resazurin overnight, read-out: IC50 Vero cells.
The mark [8] stands for this setting: 1 nM 2′,3′-cGAMP in the presence of 165 µM E-3, 24 h.

The values that follow come from publication PMC10783014, “Structure-based virtual screening and in vitro validation of inhibitors of cyclic dinucleotide phosphodiesterases ENPP1 and CdnP” (Microbiology Spectrum, 2023).

In brackets after ≈: the same amount, converted by molar mass. Several values for one entry are separate records, joined by “and”; a condition that tells them apart may be missing. Equal entries are not always repeated. Where two headings read alike, the source gives them in different places.

T1 sequence (P71615 whole entry, looked up): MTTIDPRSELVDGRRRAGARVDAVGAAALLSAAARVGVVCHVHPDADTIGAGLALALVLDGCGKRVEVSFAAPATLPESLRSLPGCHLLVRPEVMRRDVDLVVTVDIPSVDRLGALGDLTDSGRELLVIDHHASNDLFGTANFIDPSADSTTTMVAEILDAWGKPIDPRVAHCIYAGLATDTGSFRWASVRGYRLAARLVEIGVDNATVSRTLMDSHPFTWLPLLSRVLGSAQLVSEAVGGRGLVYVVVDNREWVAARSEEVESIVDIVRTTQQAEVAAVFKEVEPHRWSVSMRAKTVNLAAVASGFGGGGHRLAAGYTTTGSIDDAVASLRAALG

`O=C(C[N+]12CN3CN(CN(C3)C1)C2)c1ccc2ccccc2c1` [Inhibitor C-5]: at M.tb CdnP [1], the “IC50 CdnP” value is 28.8 (11.2) µg/mL. The IC50 (in general, the concentration at which inhibition is half-maximal) at M.tb CdnP [1] (read-out: IC50 CdnP) was 28.8 µM; against human ENPP1 it was > 257 µM; in the test with Vero cells (setting [6]), 154 µM. The “IC50 ENPP1” value at human ENPP1 is reported as > 100 µg/mL. For the same molecule, in the test with Vero cells (setting [5]), the “IC50 Vero cells” value came to 60 µg/mL.

Turning to `CC(OCCCCOC(C)n1cnc2c(=O)nc[nH]c21)n1cnc2c(=O)nc[nH]c21` (stereo not drawn) [Inhibitor C-13], the IC50 against M.tb CdnP [1] (IC50 CdnP) was 9.66 µM and 9.65 µM; on human ENPP1, > 241 µM; in the test on Vero cells (setting [7]), > 100 µg/mL; with Vero cells (setting [6]) it was > 241 µM.

For `Cc1c2cc[n+](C)cc2c(COC2OC(CO)C(O)C2O)c2c3ccccc3n(C)c12` (stereo not drawn) [Inhibitor C-29], the 50% inhibitory concentration (IC50) is 14.2 µM at M.tb CdnP [1] (IC50 CdnP), 19.4 µM at human ENPP1, > 100 µg/mL in the test with Vero cells (setting [7]) and > 237 µM in the test with Vero cells (setting [6]).

Turning to `O=S(=O)(NN=c1nc(N2CCCC2)[nH]c(N2CCCC2)n1)c1ccccc1` [Inhibitor C-33], the IC50 is 18.8 µM and 18.7 µM against M.tb CdnP [1] (IC50 CdnP); 60.5 µM and 60.3 µM against human ENPP1; > 100 µg/mL in the test with Vero cells (setting [7]); > 257 µM in the test on Vero cells (setting [6]).

In the case of `Cc1ccc(S(=O)(=O)NN=c2nc(N3CCCC3)[nH]c(N3CCCC3)n2)cc1` [Inhibitor C-34], the IC50 against M.tb CdnP [1] (IC50 CdnP) is 13.1 µM; on human ENPP1, 63.3 µM and 63.4 µM; with Vero cells (setting [7]) it was > 100 µg/mL; in the test with Vero cells (setting [6]), > 247 µM.

For the molecule `NNc1nc(N2CCCCC2)c2[nH]cnc2n1` [Inhibitor C-76], the “IC50 CdnP” value at M.tb CdnP [1] was 42.9 (10) µg/mL. Also, the IC50 at M.tb CdnP [1] (read-out: IC50 CdnP) was 42.9 µM; against human ENPP1, > 429 µM; with Vero cells (setting [6]) it was > 429 µM. Also, at human ENPP1, the “IC50 ENPP1” value is > 100 µg/mL. In addition, in the test with Vero cells (setting [5]), the “IC50 Vero cells” value is listed as > 100 µg/mL.

`Cc1ccc(Nc2nc(N)nc(Nc3ccc4ccccc4c3)n2)cc1` [Inhibitor E-3]: the IC50 is 26.4 µM and 29.2 µM on human ENPP1; > 100 µg/mL with Vero cells (setting [7]); > 264 µM with Vero cells (setting [6]). Besides, the “IRF induction (SEAP signal)” value in test [2] worked out at 1.1 A655 units. Further, the “fold increased IRF signal versus cGAMP alone” value in test [2] is 2.75 fold. The IFN-β release in test [3] (setting [8]) was found to be 95 pg/mL; in test [3] (165 µM E-3 alone, no cGAMP) it was 10 pg/mL. In addition, the “fold increase in IFN-β release versus cGAMP alone” value in test [3] (setting [8]) was 2.1 fold.

Regarding `c1cc2c(cc1C(N1CCNCC1)N1CCNCC1)OCO2` [Inhibitor E-12], on human ENPP1, half-maximal inhibition (IC50) required 41.1 µM and the “IC50 ENPP1” value is recorded as 12.5 µg/mL (≈ 41.1 µM). Further, in the test on Vero cells (setting [5]), the “IC50 Vero cells” value was > 100 µg/mL. Also, in the test with Vero cells (setting [6]), the half-inhibitory concentration (IC50) is > 329 µM.

Take `O=C(Nc1n[nH]c(NC(=O)c2ccccc2)n1)c1ccccc1` [Inhibitor E-27]: the IC50 at human ENPP1 is 16.3 µM; in the test on Vero cells (setting [7]), > 100 µg/mL; with Vero cells (setting [6]), > 326 µM.

Regarding `NC1CC2NC3CCCCC3NC2CC1N` (stereo not drawn) [Inhibitor E-37], the half-inhibitory concentration (IC50) is 44.6 µM on human ENPP1; > 100 µg/mL in the test on Vero cells (Chlorocebus sabaeus, Vero, 48 h, read-out: IC50 Vero cells, Vero cell growth inhibition, 48 h then resazurin overnight); > 446 µM in the test on Vero cells (read-out: IC50 Vero cells, Vero cell growth inhibition, 48 h then resazurin overnight).

Turning to `O=C(NNc1nc(NC2CCCCC2)nc(NC2CCCCC2)n1)c1ccccc1` [Inhibitor E-60], the half-maximal inhibitory concentration (IC50) against human ENPP1 is 9.8 µM and 9.77 µM; with Vero cells (setting [7]) it was > 100 µg/mL; in the test on Vero cells (setting [6]) it was > 245 µM.

On to c-di-AMP, for which, on M.tb CdnP [4], the Km (commonly the substrate concentration at which the rate is half of its maximum) was 51.4 µM and the “Vmax for CdnP” value amounted to 0.5664 µM/min.
